Values quoted from earlier work as cited in patent publication US6844014B1, “Herbal healing lotion for veterinary use” (priority 2002, dated 2005).

Details: treatment by previous veterinarian before the office visit

Compound: C[C@]12CCC(=O)C=C1CC[C@@H]1[C@@H]2C(=O)C[C@@]2(C)[C@H]1CC[C@]2(O)C(=O)CO [cortisone]
- result of previous treatment of the lesion: no positive result was obtained
